Literature values in patent publication EP0374725A2, “Transdermal therapeutic system having norpseudoephedrine as the active compound” (LTS Lohmann Therapie-Systeme GmbH & Co. KG, priority 1988, dated 1990).

Conditions: background statement, amphetamines as medium-strong bases

Q: For `C[C@H](N)[C@@H](O)c1ccccc1` [D-Norpseudoephedrin], which pka-Wert is on record?
A: 8,9
